Reference: ChEMBL document CHEMBL4184289, “Design, synthesis and anticancer activities evaluation of novel 5H-dibenzo[b,e]azepine-6,11-dione derivatives containing 1,3,4-oxadiazole units” (Bioorg Med Chem Lett, 2018)
pIC50: −log10 of the molar value. Activity calls are given as the source filed them. The calls are words filed in the database; no cut-off is given here.

Legend:
[1] = tested on: OVCAR-3; experiment: Antiproliferative activity against human OVCAR3 cells after 24 hrs by MTT assay; format: functional, cell-based; settings: for IC50: ovcar-3; for pIC50: Homo sapiens, OVCAR-3, 24 h, read-out: IC50
[2] = biological target: Poly [ADP-ribose] polymerase 1 (Homo sapiens, UniProt P09874); experiment: Inhibition of recombinant human GST-tagged PARP1 expressed in Escherichia coli using damaged DNA as substrate after 30 mins in presence of NAD+ by resazurin dye based fluorescence assay; settings: for pIC50: read-out: IC50
Poly [ADP-ribose] polymerase 1, sequence (P09874 whole entry): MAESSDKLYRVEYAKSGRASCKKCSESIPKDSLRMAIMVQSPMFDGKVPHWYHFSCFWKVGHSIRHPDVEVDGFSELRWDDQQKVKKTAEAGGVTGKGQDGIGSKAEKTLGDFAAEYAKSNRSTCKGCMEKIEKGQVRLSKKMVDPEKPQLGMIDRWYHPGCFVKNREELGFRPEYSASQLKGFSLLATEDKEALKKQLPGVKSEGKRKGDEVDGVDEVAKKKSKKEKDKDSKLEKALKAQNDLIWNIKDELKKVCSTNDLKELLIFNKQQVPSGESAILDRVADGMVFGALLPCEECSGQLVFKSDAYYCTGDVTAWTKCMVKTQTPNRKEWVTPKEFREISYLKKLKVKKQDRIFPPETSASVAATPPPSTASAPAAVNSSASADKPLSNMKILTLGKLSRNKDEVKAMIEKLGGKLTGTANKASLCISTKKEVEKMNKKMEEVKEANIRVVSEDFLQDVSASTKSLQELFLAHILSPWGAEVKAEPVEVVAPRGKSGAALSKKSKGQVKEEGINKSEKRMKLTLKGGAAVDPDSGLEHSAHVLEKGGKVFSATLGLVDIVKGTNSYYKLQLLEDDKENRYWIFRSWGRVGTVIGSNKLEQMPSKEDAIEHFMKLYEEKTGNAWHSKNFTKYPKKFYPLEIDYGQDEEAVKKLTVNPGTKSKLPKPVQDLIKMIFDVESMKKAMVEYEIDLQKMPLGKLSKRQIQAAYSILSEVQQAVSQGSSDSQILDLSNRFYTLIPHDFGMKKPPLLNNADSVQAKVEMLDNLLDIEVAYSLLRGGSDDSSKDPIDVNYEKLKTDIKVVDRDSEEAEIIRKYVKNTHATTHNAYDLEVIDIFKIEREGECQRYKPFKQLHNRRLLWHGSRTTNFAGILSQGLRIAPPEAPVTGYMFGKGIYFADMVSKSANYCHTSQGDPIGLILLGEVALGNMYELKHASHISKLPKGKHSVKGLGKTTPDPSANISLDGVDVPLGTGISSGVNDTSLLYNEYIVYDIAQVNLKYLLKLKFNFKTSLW

[3] = tested on: OVCAR-3; experiment: Induction of apoptosis in human OVCAR3 cells assessed as downregulation of Bcl2 protein expression at 0.625 to 10 uM after 24 hrs by Western blot method; format: functional, cell-based

Structure (SMILES) | IC50 [1] | pIC50 [1] | pIC50 [2] | IC50 [2] | Activity [3]
COc1c(Br)cc(Br)cc1/C=C/c1nnc(-c2cc(C)cc3c(=O)c4ccccc4c(=O)[nH]c23)o1 | Not Active | – | 6.03 | – | –
Cc1cc(-c2nnc(CNC(=O)c3ccccc3Cl)o2)c2[nH]c(=O)c3ccccc3c(=O)c2c1 | Not Active | – | – | Not Active | –
Cc1cc(-c2nnc(-c3ccccc3Cl)o2)c2[nH]c(=O)c3ccccc3c(=O)c2c1 | – | 5.38 | 7.29 | – | –
O=C(NCc1nnc(-c2cccc3c(=O)c4ccccc4c(=O)[nH]c23)o1)c1ccccc1 | – | < 4.00 | 5.90 | – | –
COc1c(Br)cc(Br)cc1/C=C/c1nnc(-c2cccc3c(=O)c4ccccc4c(=O)[nH]c23)o1 | – | 5.85 | 7.60 | – | Active
COc1ccc(Cl)cc1/C=C/c1nnc(-c2cc(C)cc3c(=O)c4ccccc4c(=O)[nH]c23)o1 | – | < 4.00 | 5.92 | – | –
COc1ccccc1/C=C/c1nnc(-c2cc(C)cc3c(=O)c4ccccc4c(=O)[nH]c23)o1 | – | 4.97 | 6.83 | – | –
O=C(NCc1nnc(-c2cccc3c(=O)c4ccccc4c(=O)[nH]c23)o1)c1ccccc1Cl | – | < 4.00 | 6.13 | – | –
CNCc1ccc(-c2[nH]c3cc(F)cc4c3c2CCNC4=O)cc1 [RUCAPARIB] | – | 5.48 | – | – | –
Cc1cc(-c2nnc(COc3ccccc3)o2)c2[nH]c(=O)c3ccccc3c(=O)c2c1 | Not Active | – | – | Not Active | –
COc1ccc(Br)cc1/C=C/c1nnc(-c2cc(C)cc3c(=O)c4ccccc4c(=O)[nH]c23)o1 | Not Active | – | – | Not Active | –
Cc1cc(-c2nnc(CNC(=O)c3ccccc3)o2)c2[nH]c(=O)c3ccccc3c(=O)c2c1 | – | 4.94 | 6.52 | – | –
Cc1cc(-c2nnc(-c3ccccc3)o2)c2[nH]c(=O)c3ccccc3c(=O)c2c1 | – | 5.00 | 6.56 | – | –
COc1ccc(F)cc1/C=C/c1nnc(-c2cc(C)cc3c(=O)c4ccccc4c(=O)[nH]c23)o1 | – | < 4.00 | 5.98 | – | –

The next lines start with results.

IC50 [1] | pIC50 [1] | Structure (SMILES) | pIC50 [2] | IC50 [2] | Activity [3]
– | < 4.00 | COc1ccc(Cl)cc1/C=C/c1nnc(-c2cccc3c(=O)c4ccccc4c(=O)[nH]c23)o1 | 5.90 | – | –
– | 4.75 | Cc1cc(-c2nnc(/C=C/c3ccccc3)o2)c2[nH]c(=O)c3ccccc3c(=O)c2c1 | 6.35 | – | –
– | 5.20 | O=c1[nH]c2c(-c3nnc(COc4ccccc4)o3)cccc2c(=O)c2ccccc12 | 7.00 | – | –
– | 4.92 | O=c1[nH]c2c(-c3nnc(/C=C/c4ccccc4)o3)cccc2c(=O)c2ccccc12 | 6.40 | – | –
– | < 4.00 | O=c1[nH]c2c(-c3nnc(-c4ccccc4Cl)o3)cccc2c(=O)c2ccccc12 | 5.96 | – | –
– | 5.05 | COc1ccccc1/C=C/c1nnc(-c2cccc3c(=O)c4ccccc4c(=O)[nH]c23)o1 | 6.87 | – | –
– | 5.78 | COc1ccc(Br)cc1/C=C/c1nnc(-c2cccc3c(=O)c4ccccc4c(=O)[nH]c23)o1 | 7.33 | – | Active
– | < 4.00 | COc1ccc(F)cc1/C=C/c1nnc(-c2cccc3c(=O)c4ccccc4c(=O)[nH]c23)o1 | 6.02 | – | –
– | < 4.00 | O=c1[nH]c2c(-c3nnc(-c4ccccc4)o3)cccc2c(=O)c2ccccc12 | – | Not Active | –
